Laboratory results as given in article PMC10644327, “A randomized, double‐blind phase 1b study evaluating the safety, tolerability, pharmacokinetics and pharmacodynamics of the NLRP3 inhibitor selnoflast in patients with moderate to severe active ulcerative colitis” (Clinical and Translational Medicine, 2023).
Where two headings read alike, the source gives them in different places.

Legend:
[1] = cited from earlier work
P-glycoprotein (P-gP) = tested on: P-glycoprotein (P-gP); set-up: method as in Investigator Brochure; conditions: in vitro studies; ref Investigator Brochure; cited from earlier work
[2] = Safety and tolerability in patients with ulcerative colitis; assay type: in vivo, human
Excerpt: The primary objective of this study was to evaluate the PK, safety, and tolerability of selnoflast. The main endpoints were the incidence and severity of adverse events (AEs), changes in vital signs, 12‐lead electrocardiogram (ECG) parameters, and clinical laboratory safety parameters. AEs were monitored throughout the study and at the 14‐day follow‐up visit. Safety assessments included recording of the incidence and type of treatment‐emergent adverse events (TEAEs), discontinuations, serious TEAEs, and adverse events of special interest (AESIs) (including cases of elevated alanine aminotransferase [ALT] or aspartate aminotransferase [AST] in combination with either elevated bilirubin or clinical jaundice). Vital signs, ECGs, blood chemistry and hematology panels, coagulation panels and urinalysis were assessed at screening and at various time points during the study. Changes in absolute lymphocyte count were also assessed. Blood samples for PK analyses were obtained pre‐dose and at various timepoints up to 24 h post‐dose throughout the 7‐day in‐clinic treatment period, as well as once during the 14‐day follow‐up visit. As the 1‐week duration of the study was too short for assessing clinical changes, no clinical assessments were planned. Further details are given in the study protocol (Supporting Information).

[3] = tested on: cells isolated from the sigmoid colon; experiment: Single‐cell RNA sequencing of sigmoid colon tissue; assay type: in vivo, human; conditions: pseudobulk method, baseline and Day 7
Description: Single cell suspensions were obtained from cryopreserved sigmoid colon tissue samples through mechanical and enzymatic dissociation, and loaded onto a 10X chromium controller for cell partitioning. Single‐cell RNA‐sequencing libraries were prepared using 10X genomics NextGEM single‐cell 3′ version 3.1 reagents and sequenced on an Illumina NovaSeq 6000 sequencer. Quality control, data filtering, and data analysis was performed with the BESCA software (version 2.5.1)[27] and the RiBIOS software suite, as well as using custom scripts in both R (version 4.2.0) and Python (version 3.8).

[4] = tested on: Breast Cancer Resistance Protein (BCRP); set-up: method as in Investigator Brochure; conditions: in vitro studies; ref Investigator Brochure; cited from earlier work
[5] = tested on: IL‐1 gene signature (CXCL1, CXCL2, CXCL3, CXCL5, CXCL6, CCL2, IL6, TNFAIP6); experiment: IL‐1 gene signature in sigmoid colon tissue by qPCR; assay type: in vivo, human; conditions: mean [± SD], selnoflast arm, median log2FC of 8 genes
Description: A predefined IL‐1 gene signature comprising eight genes (i.e., CXCL1, CXCL2, CXCL3, CXCL5, CXCL6, CCL2, IL6, TNFAIP6) relevant in the context of IBD was assessed in RNA extracted from the sigmoid colon tissue. The signature had been determined by combining gene expression data that met the following criteria: (1) overlapping expression profiles (upregulation by IL‐1β stimulation) in multiple cell types,[25] (2) differential expression in relevant cell types across published and proprietary single‐cell RNA‐sequencing (scRNA‐seq) datasets involving IBD patients and controls[26] and (3) co‐expression with the IL1R1 receptor and differential colonic gene expression between UC patients and healthy individuals. The 8‐gene panel was then assessed by quantitative PCR (qPCR) before and after treatment (baseline and Day 7), normalized to a set of housekeeping genes (B2M, GusB, HPRT1, MRLP19) and log2 fold changes (log2FC) from baseline were reported per gene as well as across the eight genes (median log2FC = gene signature).

Caspase‐1 = Caspase‐1 (pro and active form) WES‐assay in sigmoid colon tissue; assay type: in vivo, human; conditions: after 7 days’ treatment
Description: (§1) Tissue biopsies from the sigmoid colon were obtained before start of treatment (up to Day −3) and at the end of treatment (Day 7). For operational reasons, biopsies were taken 2−4.5 h post‐dose on Day 7. Stool samples were obtained at screening, before start of treatment, throughout the study, and at the 14‐day follow‐up visit. Levels of calprotectin were determined in stool samples. Sigmoid colon tissue was processed for RNA and DNA extraction as well as for single‐cell analysis, subsequent transcriptomic analysis, and identification of PD biomarkers. Sigmoid colon tissue samples were also processed for histology (hematoxylin and eosin staining, immunohistochemistry, fluorescence in situ hybridization) in order to characterize the cell types present (i.e., neutrophils and inflammatory monocytes). Histological analysis was performed on sigmoid colon tissue samples (from baseline and Day 7) using the disease‐specific histological indices Geboes score[23] and Nancy index.[24] Caspase‐1 (pro and active form) was assessed using a validated WES‐assay (manuscript in preparation).

[6] = tested on: IL‐1β release in ex vivo stimulated whole blood; set-up: method as in unpublished results, study IZD334-001; conditions: healthy subjects, 450 mg QD, ref unpublished results, study IZD334-001, cited from earlier work
calprotectin = experiment: Stool calprotectin in UC patients; assay type: in vivo, human; conditions: Day 7, mean (± SD), selnoflast arm; results called uninterpretable (8/19 baseline samples not per protocol)
Description: as §1

[7] = tested on: IL‐1β release in whole blood; experiment: Inhibition of IL‐1β release in whole blood upon ex vivo stimulation with LPS (TruCulture), UC patients; set-up: species or system human; conditions: for Inhibition of IL‐1β release compared to baseline: 450 mg
Description: Blood samples were drawn pre‐dose and at various timepoints and placed in TruCulture whole blood collection and culture tubes that were pre‐filled with lipopolysaccharide (LPS) (final working concentration of 100 ng/mL LPS after addition of 1 mL of blood to the LPS‐containing Truculture tubes). Following 24 h incubation, TruCulture supernatants were collected, stored, and levels of secreted IL‐1β were subsequently measured in order to understand how these responded to NLRP3 inhibition by selnoflast. The levels of IL‐1β were also quantified in plasma K2EDTA samples using the same SIMOA IL‐1β Assay Kit (Quanterix). The quantitative range of the method was 0.196 to 490 pg/mL for plasma and 4.01 to 1470 pg/mL in Truculture supernatants. Plasma samples were also assessed for IL‐18, using a commercial SIMOA IL‐18 Assay Kit (Quanterix; the quantitative range for plasma was 0.0200–45.0 pg/mL).

CCN1CCC(S(=O)(=O)NC(=O)Nc2c3c(cc4c2CCC4)CCC3)CC1 [Selnoflast, selnoflast]
Dose dependence of systemic exposure ([1]; healthy subjects, 20 to 600 mg, ref unpublished results, IZD334‐001): approximately dose‐proportional | Median Tmax ([1]; healthy subjects, single administration, 20 to 600 mg, fasted, ref unpublished results, IZD334‐001): 30 to 360 min | Steady‐state achieved ([1]; healthy subjects, ref unpublished results, IZD334‐001): Day 2 | Change in exposure on repeat dosing ([1]; healthy volunteers, repeat dosing for 7 days, ref study IZD334-001): no indication of a change | half-life ([1]; healthy volunteers, ref study IZD334-001): approximately 7 hours | P-gp substrate status (P-glycoprotein (P-gP)): potential substrate | Deaths ([2]; N = 13): 0 | Patients with at least one AE with fatal outcome ([2]; N = 13): 0 | AEs considered treatment‐related ([2]; human, in vivo, 7 days): 23.1% | Dyspepsia, patients ([2]; human, in vivo, 7 days): 15.4% | Headache, patients ([2]; human, in vivo, 7 days): 15.4% | Patients with at least one AE leading to dose modification/interruption ([2]; human, in vivo, 7 days): 0 | Patients with at least one AE leading to withdrawal from treatment ([2]; human, in vivo, 7 days): 0 | Patients with at least one Related AE ([2]; human, in vivo, 7 days): 3 (23.1%) | Patients with at least one Related AE leading to dose modification/ interruption ([2]; human, in vivo, 7 days): 0 | Patients with at least one Related AE leading to withdrawal from treatment ([2]; human, in vivo, 7 days): 0 | Patients with at least one Serious AE ([2]; human, in vivo, 7 days): 0 | Patients withdrawn from study due to AE ([2]; human, in vivo, 7 days): 0 | Severity of AEs ([2]; human, in vivo, 7 days): mild (Grade 1), with the exception of one AE of Grade 2 severity | Cellular composition and gene expression, difference between treatment arms [3]: No significant differences | BCRP substrate status [4]: potential substrate | IL‐1 gene signature, log2FC from baseline to Day 7 [5]: −1.14 [± 1.8] log2FC | Caspase‐1 (pro‐ and active forms) change (Caspase‐1): did not show marked changes | Inhibition of IL‐1β release compared to baseline ([6]; over the dosing interval (24 hours)): over 90% | Inhibition of IL‐1β release compared to baseline ([6]; over the dosing interval (24 hours), listed as RO7486967): 90% | Inhibition of IL‐1β release compared to baseline ([6]; up to 10 h post‐dose): 99% | Stool calprotectin change from baseline (calprotectin): +4146.6 (± 12321.12) μg/g | Inhibition of IL‐1β release compared to baseline ([7]; Day 1, from 30 min until at least 10 h post‐dose, mean (± SD)): > 95% | inhibition at 450 mg ([7]; Homo sapiens, at trough (25–100 h post‐dose), 450 mg QD, read-out: Inhibition of IL‐1β release compared to baseline): ~90% | Inhibition of IL‐1β release compared to baseline ([7]; just before the next administration on Day 2, mean (SD)): 91.2%
